Converted amounts (≈) assume the structure as drawn. Marks after values point to notes of the source that are not given here.
Assays:
MCF-7 (human breast) = experiment: In vitro tumour cell growth inhibition (MTT), MCF-7; type: cell-based; conditions: MCF7, Table 1 experiment, 96 h
Experimental: (§1) Temozolomide (white powder), temozolomide acid (white powder) and temozolomide-8-carboxylate hexyl (white scale crystal) were made in house. For the estimation of in vitro tumour cell growth inhibition, MV3 (human melanoma), M14 (human melanoma), B16 and B16-BL6 (mouse melanoma), SHG-44, TJ899 and TJ905 (human glioma), MCF-7 (human breast), HCT-8 (human colon), A549 (human non small lung), Bel7402 (human hepatocellulor), and BGC-823 (human stomach) were used. All tumour cells were cultured in RPMI-1640 medium supplemented with 10% fetal bovine serum (FBS) at 37° C. in a humidified 5% CO2 incubator.
(§2) After being harvested from culture flasks, a cell suspension of 1×10^4/ml was made by using 1640 RPMI medium supplemented with 10% fetal bovine serum. 100 μl (contains 1000 tumour cells) of the cell suspension was seeded per well of 96-well flat-bottom Costar culture plates at 37° C. in a humidified 5% CO2 incubator for 24 hrs before introducing drugs. Each tested compounds was made for five different concentrations and 100 μl of the each concentration was introduced into parallel three wells; control wells were added with 100 μl of plain medium alone; fluorouracil (a chemotherapeutic antitumour drug) was used as the positive control. Cells were then incubated for 96 h. Proliferative response and cell death were determined using MTT (3-(4,5-dimethylthiazolyl)-2,5-diphenyl-tetrazolium bromide) assay.
(§3) MTT assay: Following incubation of cells with the tested compounds for 96 h, 100 μl of 0.4 mg/ml MTT in RPMI 1640 was added to each well and the plate was incubated at 37° C. for 4 h. The plate was then centrifuged and followed by removal of medium. 150 μl of DMSO was then added to dissolve formazan crystal. DMSO-added plates were placed on a plate shaker for 5 min and absorbance was measured spectrophotometrically at 540 nm (with reference wavelength at 450 nm) using a Benchmark microtiter plate reader (Bio-Rad 550, Bio-Rad Laboratories, CA, U.S.A.).
(§4) The IC50 was calculated from the curve of the tested compound concentrations against the inhibition rate of the tumour cells. […]

HCT-8 (human colon) = experiment: In vitro tumour cell growth inhibition (MTT), HCT-8; type: cell-based; conditions: Table 1 experiment, 96 h
Experimental: as §1, §2, §3, §4

M14 (human melanoma) = experiment: In vitro tumour cell growth inhibition (MTT), M14; type: cell-based; conditions: Homo sapiens, Table 2 experiment, 96 h
Experimental: as §1, §2, §3
(§5) The IC50 was calculated from the curve of the tested compound concentrations against the inhibition rate of the tumour cells. Table 1 summarized the experiment results by using six human cancer cell lines, HCT-8 (colon carcinoma), A549 (non small lung carcinoma), MCF-7 (breast), Bel7402 (hepatocellulor carcinoma), BGC-823 (stomach adenocarcinoma), and MV3 (melanoma). Table 2 summarized the results from the experiment results by using two human melanoma cell lines, MV3 and M14, two mouse melanoma cell lines, B16 and B16-BL6, and three human glioma cell lines, TJ899, SHG-44 and TJ905.

B16 (mouse melanoma) = experiment: In vitro tumour cell growth inhibition (MTT), B16; type: cell-based; conditions: Mus musculus, Table 2 experiment, 96 h
Experimental: as §1, §2, §3, §5

TJ899 (human glioma) = experiment: In vitro tumour cell growth inhibition (MTT), TJ899; type: cell-based; conditions: Homo sapiens, Table 2 experiment, 96 h
Experimental: as §1, §2, §3, §5

SHG-44 (human glioma) = experiment: In vitro tumour cell growth inhibition (MTT), SHG-44; type: cell-based; conditions: Homo sapiens, SHG-44, Table 2 experiment, 96 h
Experimental: as §1, §2, §3, §5

[1] = Measured log P, octanol/water; type: physicochemical; conditions: octanol/water system; read-out: measured Log P (mLog P)
Experimental: Log P values of temozolomide (1) and the temozolomide esters were calculated using TSAR (Oxford Molecular, Oxford, UK), Molecular Modeling Pro (ChemSW, Fairfield, Calif.) and Chem Office 7.0 (CambridgeSoft, Cambridge, UK) programmes. Calculated Log P values were verified for temozolomide and the temozolomide hexyl ester by measuring the octanol/water coefficient (Table 4).

MV3 melanoma (human) = experiment: In vivo antitumour activity, BALB/c nude mice inoculated with MV3 melanoma, topical application; conditions: 20 mg/mouse/day topical
Experimental: The temozolomide hexyl ester is chosen to conduct an in viva antitumour test. BALB/c nude mice were inoculated with MV3 melanoma (human). Once the tumour volume became 100–300 mm^3, the mice were divided into a controlled and a tested group of eight with a rational distribution of the mice according to the sizes of the tumours. The tested group was treated with 5% (W/V) free made dimethyl sulfoxide (DMSO) solution of the temozolomide hexyl ester twice a day (once on Saturday and Sunday) via repeated topical application (total dosage is 20 mg/mouse/day), while the controlled group was left to grow naturally. In a period of two-week experiment, the tumour growth in the mice was carefully recorded through body weighing and the measurement of the tumour sizes. After two weeks, the mice were scarified; tumour bulks were separated and weighed. The results of inhibition of tumour growth by the temozolomide hexyl ester are summarized in Table 5 and depicted in FIG. 10.
Preparation of 5% (W/V) DMSO solution of the temozolomide hexyl ester is carried out by weighing a actual amount of the temozolomide hexyl ester, then using DMSO to make the concentration to 50 mg/ml. After temozolomide hexyl ester is completely dissolved and a clear solution is obtained, the fresh made 5% (W/V) DMSO solution of the temozolomide hexyl ester is used in the experiments.
BALB/c nude mice were inoculated with MV3 melanoma (human). Once the tumour bulk became 100–300 mm^3, the mice were divided into a controlled and a tested group with a rational distribution of the mice according to the sizes of the tumours. Each group is consisted of 8 mice.
The tested group was treated with 5% (W/V) DMSO solution of the temozolomide hexyl ester twice a day (once on Saturday and Sunday) via repeated topical application on position of tumour and around of 2×2 cm^2 region (total dosage is 20 mg/mouse/day); while the controlled group was left free of treatment to allow the tumour to growth naturally.
The tumour volumes (TV) in the mice were measured for twice of a week, calculated using TV(mm^3)=(length×width^2)÷2, and carefully recorded and finally depicted in FIG. 10. After two weeks, the mice were scarified; tumour bulks were isolated, weighed and calculated the growth inhibition rate of MV3 melanoma (human) in BALB/c nude mice by the temozolomide hexyl ester. The antitumour activity of the temozolomide hexyl ester against MV3 melanoma (human) in BALB/c nude mice is evaluated by the relative tumour proliferation ratio (T/C %). T/C (%) is calculated by the following equation:
Where, RTV=Vt/Vo (Vo is the tumour volume (TV) at the time when the mice were divided into the tested group and the controlled group; Vt is the tumour volume (TV) were measured at each time interval FIG. 10). The criteria for effectiveness are (1) when T/C (%)>60, the compound is no effect; (2) when T/C (%)≦60 and statistically significant P<0.05, the compound is effect. In the case of the temozolomide hexyl ester, the T/C (%) in BALB/c nude mice bearing MV3 melanoma (human) is 33.7% (Table 3) and P<0.05.

IC50 (MCF-7 (human breast)): 20 µg/mL (≈ 71.6 µM) | IC50 (HCT-8 (human colon)): 28.6 µg/mL (≈ 103 µM) | IC50 (M14 (human melanoma)): > 100 µg/mL | IC50 (B16 (mouse melanoma)): 28.3 µg/mL (≈ 101 µM) | IC50 (TJ899 (human glioma)): > 100 µg/mL | IC50 (SHG-44 (human glioma)): 9.46 µg/mL (≈ 33.9 µM) | logP [1]: 2.56
SMILES: CCCCCCOC(=O)c1ncn2c(=O)n(C)nnc12 [temozolomide hexyl ester, Hexyl 3,4-dihydro-3-methyl-4-oxoimidazo[5,1-d]-1,2,3,5-tetrazine-8-carboxylate]
Body weight, end (MV3 melanoma (human); after two weeks, mean ± SD): 22.9 ± 2.23 g | Tumour weight (MV3 melanoma (human); after two weeks, mean ± SD): 0.41 ± 0.318 g | Tumour volume, end (MV3 melanoma (human); after two weeks, mean ± SD, P < 0.05 vs control): 622 ± 545.1* mm^3 | Body weight, start (MV3 melanoma (human); start, mean ± SD): 24.0 ± 1.53 g | Tumour volume, start (MV3 melanoma (human); start, mean ± SD): 116 ± 27 mm^3 | RTV (MV3 melanoma (human); RTV=Vt/Vo, two weeks): 3.01 ± 1.95 | Inhibition (%) of tumour growth (MV3 melanoma (human); from tumour weight, two weeks): 80.5% | T/C (%) (MV3 melanoma (human); relative tumour proliferation ratio, two weeks): 33.7%

— patent US7173021B2, “Synthesis of temozolomide esters as potent anticancer pro-drugs for topical and transdermal applications in treatments of cancers” (Tianjin North Pharm Sci-Tech Co., Ltd., priority 2004, dated 2007)
